From ChEMBL document CHEMBL3046469, “Fungicidal Activities of 2-(Substituted Phenoxymethyl)phenyl-2-methoxyiminoacaetamide Derivatives” (1998) come the findings set out here.

The first assay deals with Pyricularia oryzae. Kind of assay: Fungicidal activity against Magnaporthe oryzae assessed as rice blast disease control at 125 ppm foliar application for 24 hr before inoculation at 27 +/- 2 degC measured after 5 days by preventive manner. The class given is functional.
In the case of `CNC(=O)/C(=N/OC)c1ccccc1COc1cc(Cl)cc(Cl)c1Cl`, the Activity is under 90%.

Another assay concerns Pyricularia oryzae. The assay can be described thus: Fungicidal activity against Magnaporthe oryzae assessed as rice blast disease control at 31.3 ppm foliar application for 24 hr before inoculation at 27 +/- 2 degC measured after 5 days by preventive manner. The class given is functional.
In the case of `CNC(=O)/C(=N/OC)c1ccccc1COc1cccc(F)c1`, the Activity was 90%.
On the same count and under the same terms, with `CNC(=O)/C(=N/OC)c1ccccc1COc1cc(Cl)c(Cl)cc1Cl` the figure was 90%; with `CNC(=O)/C(=N/OC)c1ccccc1COc1cccc(Cl)c1Cl`, 90%; with `CNC(=O)/C(=N/OC)c1ccccc1COc1ccc(OC(C)C)cc1`, 90%.
The same measure, in the same setting: next, `CNC(=O)/C(=N/OC)c1ccccc1COc1cccc(Cl)c1`: 90%.
On the same count and under the same terms, with `CNC(=O)/C(=N/OC)c1ccccc1COc1ccc(F)c(F)c1` the figure was 90%.
Consider `CNC(=O)/C(=N/OC)c1ccccc1COc1cc(F)ccc1F`, for which the Activity was found to be 90%.

The test system of a further assay is Pyricularia oryzae. Kind of assay: Fungicidal activity against Magnaporthe oryzae assessed as rice blast disease control at 7.8 ppm foliar application for 24 hr before inoculation at 27 +/- 2 degC measured after 5 days by preventive manner. The class given is functional.
`CNC(=O)/C(=N/OC)c1ccccc1COc1ccc(Cl)c(C)c1`: the Activity was 90%.
Still for that read-out and setting: next, `CNC(=O)/C(=N/OC)c1ccccc1COc1cccc(C(F)(F)F)c1`: 90%; `CNC(=O)/C(=N/OC)c1ccccc1COc1ccc(C)c(C)c1`: 90%.

The test system of another assay is Podosphaera fuliginea. The assay can be described thus: Fungicidal activity against Podosphaera fuliginea assessed as cucumber powdery mildew control at 31.3 ppm foliar application 24 hr before inoculation at 23 +/- 2 degC by preventive manner. The class given is functional.
For the molecule `CNC(=O)/C(=N/OC)c1ccccc1COc1cccc(F)c1`, the Activity is recorded as 90%.
The same measure, in the same setting: with `CNC(=O)/C(=N/OC)c1ccccc1COc1ccc(F)c(F)c1` the figure was 90%.

For the next assay, the system named is Podosphaera fuliginea. The assay can be described thus: Fungicidal activity against Podosphaera fuliginea assessed as cucumber powdery mildew control at 7.8 ppm foliar application 24 hr before inoculation at 23 +/- 2 degC by preventive manner. The class given is functional.
As for `CNC(=O)/C(=N/OC)c1ccccc1COc1ccc(Cl)c(C)c1`, the Activity is listed as 90%.
`CNC(=O)/C(=N/OC)c1ccccc1COc1cccc(C(F)(F)F)c1`: the Activity was 90%.
The same measure, in the same setting: with `CNC(=O)/C(=N/OC)c1ccccc1COc1ccc(OC(C)C)cc1` the figure was 90%; with `CNC(=O)/C(=N/OC)c1ccccc1COc1cccc(Cl)c1`, 90%; with `CNC(=O)/C(=N/OC)c1ccccc1COc1ccc(C)c(C)c1`, 90%.
`CNC(=O)/C(=N/OC)c1ccccc1COc1cc(F)ccc1F`: the Activity is given as 90%.

A further assay concerns Podosphaera fuliginea. Kind of assay: Fungicidal activity against Podosphaera fuliginea assessed as cucumber powdery mildew control at 2 ppm foliar application 24 hr before inoculation at 23 +/- 2 degC by preventive manner. The class given is functional.
With `CNC(=O)/C(=N/OC)c1ccccc1COc1cc(Cl)c(Cl)cc1Cl`, the Activity turned out to be 90%.
Same read-out and setting: with `CNC(=O)/C(=N/OC)c1ccccc1COc1cccc(Cl)c1Cl` the figure was 90%; with `CNC(=O)/C(=N/OC)c1ccccc1COc1cc(Cl)cc(Cl)c1Cl`, 90%.

The next assay concerns Botrytis cinerea. The assay can be described thus: Fungicidal activity against Botryotinia fuckeliana assessed as cucumber gray mold disease control at 7.8 ppm foliar application […] at 22 +/- 2 degC by preventive manner. The class given is functional.
Take `CNC(=O)/C(=N/OC)c1ccccc1COc1ccc(Cl)c(C)c1`: the Activity is on record as 90%.
Still for that read-out and setting: with `CNC(=O)/C(=N/OC)c1ccccc1COc1cc(Cl)c(Cl)cc1Cl` the figure was 90%; with `CNC(=O)/C(=N/OC)c1ccccc1COc1cccc(C(F)(F)F)c1`, 90%; with `CNC(=O)/C(=N/OC)c1ccccc1COc1ccc(OC(C)C)cc1`, 90%.
On the same count and under the same terms, next, `CNC(=O)/C(=N/OC)c1ccccc1COc1cccc(Cl)c1`: 90%; `CNC(=O)/C(=N/OC)c1ccccc1COc1ccc(F)c(F)c1`: 90%.
On to `CNC(=O)/C(=N/OC)c1ccccc1COc1ccc(C)c(C)c1`, for which the Activity came to 90%.
Consider `CNC(=O)/C(=N/OC)c1ccccc1COc1cc(F)ccc1F`, for which the Activity is given as 90%.
Same read-out and setting: next, `CNC(=O)/C(=N/OC)c1ccccc1COc1cc(Cl)cc(Cl)c1Cl`: 90%.

In the next assay the test system is Blumeria graminis f. sp. tritici. The assay can be described thus: Fungicidal activity against Blumeria graminis f. sp. tritici assessed as wheat powdery mildew disease control at 31.3 ppm foliar application for 48 hr before inoculation by preventive manner. The class given is functional.
As for `CNC(=O)/C(=N/OC)c1ccccc1COc1cc(Cl)c(Cl)cc1Cl`, the Activity is given as 90%.
With `CNC(=O)/C(=N/OC)c1ccccc1COc1cccc(Cl)c1Cl`, the Activity is 90%.
Same read-out and setting: with `CNC(=O)/C(=N/OC)c1ccccc1COc1ccc(F)c(F)c1` the figure was 90%; with `CNC(=O)/C(=N/OC)c1ccccc1COc1cc(Cl)cc(Cl)c1Cl`, 90%.

For a further assay the test system is unchanged. The assay can be described thus: Fungicidal activity against Blumeria graminis f. sp. tritici assessed as wheat powdery mildew disease control at 7.8 ppm foliar application 48 24 hr before inoculation by preventive manner. The class given is functional.
On to `CNC(=O)/C(=N/OC)c1ccccc1COc1cccc(F)c1`, for which the Activity was found to be 90%.
On the same count and under the same terms, next, `CNC(=O)/C(=N/OC)c1ccccc1COc1ccc(OC(C)C)cc1`: 90%; `CNC(=O)/C(=N/OC)c1ccccc1COc1cccc(Cl)c1`: 90%.

The test system is the same in the next assay. The assay can be described thus: Fungicidal activity against Blumeria graminis f. sp. tritici assessed as wheat powdery mildew disease control at 2 ppm foliar application for 48 hr before inoculation by preventive manner. The class given is functional.
For `CNC(=O)/C(=N/OC)c1ccccc1COc1ccc(Cl)c(C)c1`, the Activity is given as 90%.
Same read-out and setting: with `CNC(=O)/C(=N/OC)c1ccccc1COc1cccc(C(F)(F)F)c1` the figure was 90%; with `CNC(=O)/C(=N/OC)c1ccccc1COc1ccc(C)c(C)c1`, 90%.
For the molecule `CNC(=O)/C(=N/OC)c1ccccc1COc1cc(F)ccc1F`, the Activity is reported as 90%.

The next assay deals with Thanatephorus cucumeris. Kind of assay: Fungicidal activity against Thanatephorus cucumeris assessed as rice sheath blight disease control at 125 ppm foliar application for 24 hr before inoculation at 26 +/- 2 degC measured after 5 days by preventive manner. The class given is functional.
As for `CNC(=O)/C(=N/OC)c1ccccc1COc1cccc(F)c1`, the Activity worked out at 90%.
As for `CNC(=O)/C(=N/OC)c1ccccc1COc1ccc(Cl)c(C)c1`, the Activity was under 90%.
Take `CNC(=O)/C(=N/OC)c1ccccc1COc1cccc(C(F)(F)F)c1`: the Activity is 90%.
The same measure, in the same setting: next, `CNC(=O)/C(=N/OC)c1ccccc1COc1cccc(Cl)c1Cl`: under 90%; `CNC(=O)/C(=N/OC)c1ccccc1COc1ccc(F)c(F)c1`: under 90%.
Same read-out and setting: next, `CNC(=O)/C(=N/OC)c1ccccc1COc1ccc(C)c(C)c1`: 90%; `CNC(=O)/C(=N/OC)c1ccccc1COc1cc(Cl)cc(Cl)c1Cl`: under 90%.

The test system of another assay is Thanatephorus cucumeris. Kind of assay: Fungicidal activity against Thanatephorus cucumeris assessed as rice sheath blight disease control at 31.3 ppm foliar application for 24 hr before inoculation at 26 +/- 2 degC measured after 5 days by preventive manner. The class given is functional.
For `CNC(=O)/C(=N/OC)c1ccccc1COc1cc(Cl)c(Cl)cc1Cl`, the Activity is 90%.
As for `CNC(=O)/C(=N/OC)c1ccccc1COc1ccc(OC(C)C)cc1`, the Activity was determined as 90%.
The same measure, in the same setting: next, `CNC(=O)/C(=N/OC)c1ccccc1COc1cccc(Cl)c1`: 90%; `CNC(=O)/C(=N/OC)c1ccccc1COc1cc(F)ccc1F`: 90%.

The subject of a further assay is Pseudoperonospora cubensis. Kind of assay: Fungicidal activity against Pseudoperonospora cubensis assessed as cucumber downy mildew disease control at 125 ppm foliar application 24 hr before inoculation onto the abaxial(untreated) surface of leaf by preventive manner. The class given is functional.
As to `CNC(=O)/C(=N/OC)c1ccccc1COc1cccc(Cl)c1Cl`, the Activity is on record as under 90%.
The same measure, in the same setting: with `CNC(=O)/C(=N/OC)c1ccccc1COc1ccc(F)c(F)c1` the figure was under 90%.
Still for that read-out and setting: with `CNC(=O)/C(=N/OC)c1ccccc1COc1ccc(C)c(C)c1` the figure was 90%; with `CNC(=O)/C(=N/OC)c1ccccc1COc1cc(Cl)cc(Cl)c1Cl`, under 90%.

A further assay deals with Pseudoperonospora cubensis. Kind of assay: Fungicidal activity against Pseudoperonospora cubensis assessed as cucumber downy mildew disease control at 31.3 ppm foliar application 24 hr before inoculation onto the abaxial(untreated) surface of leaf by preventive manner. The class given is functional.
With `CNC(=O)/C(=N/OC)c1ccccc1COc1cc(Cl)c(Cl)cc1Cl`, the Activity is on record as 90%.
The same measure, in the same setting: with `CNC(=O)/C(=N/OC)c1ccccc1COc1ccc(OC(C)C)cc1` the figure was 90%.

For the next assay, the system named is Pseudoperonospora cubensis. The assay can be described thus: Fungicidal activity against Pseudoperonospora cubensis assessed as cucumber downy mildew disease control at 7.8 ppm foliar application 24 hr before inoculation onto the abaxial(untreated) surface of leaf by preventive manner. The class given is functional.
In the case of `CNC(=O)/C(=N/OC)c1ccccc1COc1cccc(F)c1`, the Activity is listed as 90%.
As to `CNC(=O)/C(=N/OC)c1ccccc1COc1ccc(Cl)c(C)c1`, the Activity is reported as 90%.
Same read-out and setting: with `CNC(=O)/C(=N/OC)c1ccccc1COc1cccc(C(F)(F)F)c1` the figure was 90%; with `CNC(=O)/C(=N/OC)c1ccccc1COc1cccc(Cl)c1`, 90%.
Still for that read-out and setting: next, `CNC(=O)/C(=N/OC)c1ccccc1COc1cc(F)ccc1F`: 90%.

A further assay deals with Pseudoperonospora cubensis. Kind of assay: Fungicidal activity against Pseudoperonospora cubensis assessed as cucumber downy mildew disease control at 125 ppm foliar application 24 hr before inoculation onto the adaxial(treated) surface of leaf by preventive manner. The class given is functional.
Turning to `CNC(=O)/C(=N/OC)c1ccccc1COc1ccc(F)c(F)c1`, the Activity is given as under 90%.

Another assay has as its system Pseudoperonospora cubensis. The assay can be described thus: Fungicidal activity against Pseudoperonospora cubensis assessed as cucumber downy mildew disease control at 31.3 ppm foliar application 24 hr before inoculation onto the adaxial(treated) surface of leaf by preventive manner. The class given is functional.
Regarding `CNC(=O)/C(=N/OC)c1ccccc1COc1ccc(OC(C)C)cc1`, the Activity came to 90%.

The next assay relates to Pseudoperonospora cubensis. The assay can be described thus: Fungicidal activity against Pseudoperonospora cubensis assessed as cucumber downy mildew disease control at 7.8 ppm foliar application 24 hr before inoculation onto the adaxial(treated) surface of leaf by preventive manner. The class given is functional.
For `CNC(=O)/C(=N/OC)c1ccccc1COc1cccc(F)c1`, the Activity stood at 90%.
Same read-out and setting: next, `CNC(=O)/C(=N/OC)c1ccccc1COc1cccc(C(F)(F)F)c1`: 90%.

The test system of a further assay is Pseudoperonospora cubensis. The assay can be described thus: Fungicidal activity against Pseudoperonospora cubensis assessed as cucumber downy mildew disease control at 2 ppm foliar application 24 hr before inoculation onto the adaxial(treated) surface of leaf by preventive manner. The class given is functional.
Consider `CNC(=O)/C(=N/OC)c1ccccc1COc1ccc(Cl)c(C)c1`, for which the Activity was determined as 90%.
Still for that read-out and setting: next, `CNC(=O)/C(=N/OC)c1ccccc1COc1cc(Cl)c(Cl)cc1Cl`: 90%; `CNC(=O)/C(=N/OC)c1ccccc1COc1cccc(Cl)c1Cl`: 90%.
Still for that read-out and setting: next, `CNC(=O)/C(=N/OC)c1ccccc1COc1cccc(Cl)c1`: 90%.
Same read-out and setting: next, `CNC(=O)/C(=N/OC)c1ccccc1COc1ccc(C)c(C)c1`: 90%; `CNC(=O)/C(=N/OC)c1ccccc1COc1cc(F)ccc1F`: 90%; `CNC(=O)/C(=N/OC)c1ccccc1COc1cc(Cl)cc(Cl)c1Cl`: 90%.

A further assay has as its system Botrytis cinerea. Kind of assay: Fungicidal activity against Botryotinia fuckeliana assessed as cucumber gray mold disease control at 31.3 ppm foliar application […] at 22 +/- 2 degC by preventive manner. The class given is functional.
As to `CNC(=O)/C(=N/OC)c1ccccc1COc1cccc(F)c1`, the Activity came to 90%.
Still for that read-out and setting: with `CNC(=O)/C(=N/OC)c1ccccc1COc1cccc(Cl)c1Cl` the figure was 90%.
